Holding throughout (type): physicochemical
A short description of data set [1]: hygroscicity by dynamic vapor sorption. The settings on record: transitioned from 5% to 95% relative humidity. As for the experimental part: Dynamic vapor sorption was performed using a Q5000SA. The sample (5-15 mg) was loaded into a metallic quartz sample pan, suspended from a microbalance, and exposed to a humidified stream of nitrogen gas. Weight changes were relative to a matching empty reference pan opposite the sample, suspended from the microbalance. The sample was held for a minimum of 10 min at each humidity level and only progressed to the next humidity level if there was <0.002% change in weight between measurements (interval: 5 s) or 45 min had elapsed (for 5-65% RH) or 2 hours had elapsed (for 80 and 95% RH). The following program was used: • 1. Equilibration at 50% RH • 2. 50% to 5% (50%, 35%, 20%, and 5%) • 3. 5% to 95% (5%, 20%, 35%, 50%, 65%, 80%, and 95%) • 4. 95% to 5% (95%, 80%, 65%, 50%, 35%, 20%, and 5%) • 5. 5% to 50% (5%, 20%, 35%, and 50%).
The crystalline solid was analyzed for hygroscopicity.

Data set [2] in a line: accelerated stability study (75% relative humidity, 40° C., one week). The settings on record: one week at 75% relative humidity. As for the experimental part: An accelerated stability study was conducted on the crystalline solid. Approximately 10 mg of crystalline solid was placed into a 4 mL vial, and the vial was covered with a Kimwipe. The vial was stored for one week inside a stability chamber producing a relative humidity of 75% at 40° C.

The nature of data set [3]: water solubility of the crystalline solid. The settings on record: pH 7.0 (phosphate buffer), 37° C., after 30 minutes.

In the case of “Maleic Acid Salt of (S)-1-((R)-3-amino-1-(4-((6-amino-9H-purin-9-yl)methyl)-6-(2,5-difluoro-4-methoxyphenyl)pyridin-3-yl)piperidin-3-yl)-2,2-difluoroethan-1-ol [Example 1]”, in data set [1], the “increase in weight by dynamic vapor sorption” value turned out to be 0.507%. In addition, the “change of crystalline form by XRPD after the stability study” value in data set [2] is “no change of the crystalline form”. Also, in data set [2] (99.59 area percent before the study), the “HPLC purity after the stability study” value amounted to 99.56 area percent.

With “p-Toluenesulfonic Acid Salt of (S)-1-((R)-3-amino-1-(4-((6-amino-9H-purin-9-yl)methyl)-6-(2,5-difluoro-4-methoxyphenyl)pyridin-3-yl)piperidin-3-yl)-2,2-difluoroethan-1-ol [Example 3]”, the “water solubility (mg/mL of the free base (S)-1-((R)-3-amino-1-(...)piperidin-3-yl)-2,2-difluoroethan-1-ol)” value in data set [3] is recorded as 1.61 mg/mL.

Values taken from US20260152502A1, “PIPERIDINYL-METHYL-PURINE AMINE SALTS, CRYSTALLINE FORMS, AND THEIR USE IN TREATING MEDICAL DISEASES AND CONDITIONS” (K36 THERAPEUTICS, INC., priority 2022, published 2026).
